The text below walks through data of patent US4680397A, “Apovincaminol derivative” (Richter Gedeon Vegyeszeti Gyar Rt., priority 1984, dated 1987).

SMILES strings stand for the structures. Where a name gives a salt, the structure may show the parent alone.

What all share (assay type): biochemical
Assay [1] concerns the target phosphodiesterase isolated from rat brain. Put plainly: phosphodiesterase inhibition, enzyme isolated from rat brain. The following applies: inhibitor concentration giving 50% decrease of enzyme activity, 20 minutes incubation, read-out: 150(μmoles) rat brain. As for the experimental part: (§1) The model experiments were performed by means of phosphodiesterase isolated from animal tissues (rat brain, cattle brain, cattle heart). […] From the test compounds a 1 mmole stock solution was prepared with aqueous hydrochloric acid solution and different amounts of the stock solution were added to the enzyme preparates corresponding to 5×10^-6, 1×10^-5 and 5×10^-5 mole/lit. of the test compound. A solution of papaverine used as reference compound is added to the enzyme preparate in an analogous manner.
(§2) The activity of the solutions of the test compound and papaverine was expressed in percents of the control (enzyme solution without any inhibitory substance, 100%).
(§3) The tests on an enzyme isolated from cattle brain and cattle heart, respectively were carried out in an analogous way.

In assay [2] the target is phosphodiesterase isolated from cattle brain. As to the kind of experiment: phosphodiesterase inhibition, enzyme isolated from cattle brain. The following applies: inhibitor concentration giving 50% decrease of enzyme activity, 20 minutes incubation, read-out: 150(μmoles) cattle brain. As for the experimental part:
as §1, §2, §3

Assay [3] deals with phosphodiesterase isolated from cattle heart. Put plainly: phosphodiesterase inhibition, enzyme isolated from cattle heart. The following applies: inhibitor concentration giving 50% decrease of enzyme activity, 20 minutes incubation, read-out: 150(μmoles) cattle heart. As for the experimental part:
as §1, §2, §3

Consider `CCC12C=CCN3CCc4c(n(c5cccc([N+](=O)[O-])c45)C(COC(C)=O)=C1)C32` (centres unmarked) [compound 886, 9-Nitro-17,18-dehydroapovincaminol acetate], for which the IC50 in assay [1] worked out at 50 µM.

`CCC12C=CCN3CCc4c(n(c5cc([N+](=O)[O-])ccc45)C(COC(C)=O)=C1)C32` (centres unmarked) [compound 887, 11-nitro-17,18-dehydro-apovincaminol acetate]: in assay [1], the IC50 is 30 µM.

Turning to `CCC12C=CCN3CCc4c(n(c5cccc([N+](=O)[O-])c45)C(COC(=O)c4cc(OC)c(OC)c(OC)c4)=C1)C32` (centres unmarked) [compound 888, 9-Nitro-17,18-dehydroapovincaminol 3',4',5'-trimethoxybenzoate], the IC50 stood at 30 µM in assay [1], 10 µM in assay [2] and 5 µM in assay [3].

`CCC12C=CCN3CCc4c(n(c5cc([N+](=O)[O-])ccc45)C(COC(=O)c4cc(OC)c(OC)c(OC)c4)=C1)C32` (centres unmarked) [compound 889, 11-nitro-17,18-dehydro-apovincaminol 3',4',5'-tri-methoxybenzoate]: the results for the IC50 in assay [1], in assay [2] and in assay [3] were 10 µM, 5 µM and 2 µM, respectively.

Take `CCC12C=C(COC(C)=O)n3c4c(c5ccccc53)CCN(CC(OC(C)=O)C1)C42` (stereo not drawn) [compound 956, 18β-Acetoxy-apovincaminol acetate]: the results for the IC50 in assay [1], in assay [2] and in assay [3] were 30 µM, 30 µM and 25 µM, respectively.

Consider `CCC12C=C(COC(C)=O)n3c4c(c5ccccc53)CCN(CC(O)C1)C42` (stereo not drawn) [compound 1041, 18β-Hydroxy-apovincaminol acetate], for which the IC50 in assay [1] was 120 µM; in assay [2], 100 µM; in assay [3], 60 µM.

As to `CCC12C=C(COC(=O)c3cc(OC)c(OC)c(OC)c3)n3c4c(c5ccccc53)CCN(CC(O)C1)C42` (stereo not drawn) [compound 1079, 18β-Hydroxy-apovincaminol 3',4',5'-trimethoxybenzoate], the IC50 in assay [1] came to 5 µM; in assay [2], 5 µM; in assay [3] it was 2 µM.

For `COc1ccc(Cc2nccc3cc(OC)c(OC)cc23)cc1OC` [papaverin hydrochloride, reference compound], the IC50 is 120 µM in assay [1], 100 µM in assay [2] and 50 µM in assay [3].
